Test results: patent US6120997A, “Nucleic acid binders having an hydroxyamine motif” (The Scripps Research Institute, priority 1998, dated 2000)
Entries after “also recorded” stand apart in the source; their conditions may differ. Read-outs that look alike come from different tables or passages of the source.

Experiments:
[1] = biological target: RBE3; test: SPR binding of aminoglycosides to RBE3; set-up: species or system HIV-1; settings: 25 C; for Kd: pH 7.0, 10 mM HEPES, 150 mM NaCl, 0.1 mM EDTA, Scatchard slope; for Scatchard plot x-axis intercept (RBE3): pH 7.0, 150 mM NaCl
Experimental: (§1) FIGS. 9A and 9B illustrate neomycin B binding to RBE3, RBE3-neg and wt-RRE-II. (A) Semilogarithmic plot. […] Conditions: pH 7.0, 10 mM HEPES, 150 mM NaCl, 0.1 mM EDTA, […].
(§2) FIGS. 10A and 10B illustrate paromomycin binding to RBE3, RBE3-neg and wt-RRE-II. (A) Semilogarithmic plot; the dashed line indicates the binding of neomycin B to wt-RRE-II for comparison (B) Scatchard plot. […] Conditions: pH 7.0, 10 mM HEPES, 150 mM NaCl, 0.1 mM EDTA, […].
(§3) Binding of the aminoglycoside to all three RNA oligonucleotides is observed starting in the low nanomolar concentration range and is non-saturable over the concentration range investigated. […] The high degree of non-specific binding is not surprising considering that aminoglycosides are highly charged polycations that tend to associate nonspecifically with the polyanionic phosphate backbone of RNA. […] Data points corresponding to 0.5 or more equivalents of neomycin B represent equilibrium values and can be analyzed with respect to stoichiometry and affinity of aminoglycoside binding. […] Both sequences bind one molecule of neomycin B with submicromolar affinity followed by weaker association with several additional equivalents of the antibiotic.
(§4) Samples were prepared by serial dilutions from stock solutions in RNase free microfuge tubes (Ambion) and were centrifuged at 14000 rpm for degassing. Buffers were filtered through sterile 0.2 &m nylon membranes (Nalgene) under vacuum, except for BIA certified HBS buffer (Pharmacia Biosensor AB) which was used as obtained. All procedures for binding studies were automated as methods using repetitive cycles of sample injection and regeneration. Typically, buffer was injected in the first two cycles to establish a stable baseline value. Samples were injected at a flowrate of 5-10 &L/min using either the KINJECT or the COINJECT command. All aminoglycoside and Rev27 samples were injected from autoclaved 7 mm plastic vials that were capped with pierceable plastic crimp caps. To minimize carry over, samples were injected in order of increasing concentration. The running buffer was identical to the injection buffer, except for the salt dependence study where a single running buffer was used for all injections. Expected values for the equilibrium response of one equivalent of analyte were calculated from the relative molecular weight of the analyte and the immobilized RNA ligand in each flowcells. These values were adjusted by multiplying with a factor of 0.8 or 0.57 for Rev27 or aminoglycosides respectively. These factors arise from the different molar refractive indices of RNA and the analyte and were determined from the Scatchard plot x-axis intercepts of the 1:1 binding isotherms for Rev27 and neomycin B.
Binding Studies with Aminoglycosides. […]

[2] = system: wt-RRE-II; test: SPR binding of aminoglycosides to wt-RRE-II; set-up: species or system HIV-1; settings: for dissociation from wt-RRE-II after 1 min (in words): aminoglycoside-free buffer, pH 7.4, 150 mM NaCl
Experimental: as §1, §2
FIG. 11 illustrates the kinetic stability of wt-RRE-II complexes with neomycin B vs. paromomycin. […] Data points were taken after 1 min of dissociation.
as §3, §4
Binding Studies with Aminoglycosides.
Neomycin B sulfate (Fluka) was converted to the free base by passing it through Amberlite IRA 400 (OH-- form) and purified by ion exchange chromatography on Dowex 1-X2 100 to remove neomycin C; the purity of neomycin B was verified by NMR in D2 O. Paromomycin sulfate was obtained from Sigma and used as received. Samples were prepared by dilution from 10 mM stock solutions in injection buffer (10 mM HEPES, pH 7.4, 150 mM NaCl, 3.4 mM EDTA). Data points were taken after an association phase of 30 min. A 2 min regeneration pulse of 150 mM Na2 SO4 in injection buffer was used between injections. […]

[3] = system: AS-wt; test: SPR binding of aminoglycosides to decoding region A-site model AS-wt; set-up: species or system E. coli; settings: for RNA binding, affinity or specificity for AS-wt (in words): Example 4; for specificity for AS-wt over negative controls (in words): Example 5, HBS-buffer
Outline: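 Compounds were injected over biotinylated RNA immobilized on streptavidin SPR chips in HBS (150 mM NaCl, 10 mM HEPES pH 7.4, 3.4 mM EDTA) […]. KD was obtained by non-linear fitting of equilibrium binding isotherms; the KD(AS-U1495A)/KD(AS-wt) ratio defines specificity.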

[4] = cited from earlier work

SMILES | Kd ([1]; read-out: Kd (RBE3), neomycin B) [µM] | Scatchard plot x-axis intercept (RBE3) [1] | number of molecules/sites bound with submicromolar affinity (wt-RRE-II) ([2]; SPR) | dissociation from wt-RRE-II after 1 min (in words) [2] | relative binding affinity for wt-RRE-II (in words) ([2]; comparison of aminoglycosides) | RNA binding, affinity or specificity for AS-wt (in words) [3] | specificity for AS-wt over negative controls (in words) [3] | pKa of N3 [4] | Kd ([1]; read-out: Kd (RBE3), paromomycin) [µM] | temperature dependence of binding to AS-wt (in words) ([3]; Neo16bd, AS-wt and RBE3)
NC[C@@H]1O[C@H](O[C@H]2[C@@H](O)[C@H](O[C@@H]3[C@@H](O)[C@H](N)C[C@H](N)[C@H]3O[C@H]3O[C@H](CN)[C@@H](O)[C@H](O)[C@H]3N)O[C@@H]2CO)[C@H](N)[C@@H](O)[C@@H]1O [Neomycin B] | 0.21 | 1.01 | three different sites, each with a submicromolar dissociation constant; also recorded: three molecules of neomycin B are bound with submicromolar affinity; also recorded: up to three molecules | apparent 1:1 binding isotherm | highest affinity | tightest binder; also recorded: further improvement of the overall affinity, without affecting specificity | specific for AS-wt over the negative control RNAs | < 6 |  | 
NC[C@@H]1O[C@H](O[C@H]2[C@@H](O)[C@H](O[C@@H]3[C@@H](O)[C@H](N)C[C@H](N)[C@H]3O[C@H]3O[C@H](CO)[C@@H](O)[C@H](O)[C@H]3N)O[C@@H]2CO)[C@H](N)[C@@H](O)[C@@H]1O [Paromomycin] |  | 1.04 |  | No apparent 1:1 binding isotherm is discernible |  | somewhat higher affinity but lower specificity | specific for AS-wt over the negative control RNAs |  | 2.8 | tighter at lower temperature
